Where a SMILES comes first, the peptide text is derived from it.
Tested on: colonic human microbiota
Test: i-screen intestinal screening model, microbiota composition by 16S rRNA V4 sequencing (whole community, Bacillus persistence)
Assay type: cell-based
Conditions: for other genera relative abundance: 24 h SIEM, amino acids 3.5 mM; for other genera relative abundance / effect on the microbial community: dipeptides 7 mM; for synergy on microbial community composition (higher increase of Clostridium XIVa, higher decrease of Clostridium XI than single additions): 24 h; for effect on the microbial community: Example 8, amino acids 3.5 mM, 0% O2
From the text: To determine the effect of the probiotic strains Bacillus subtilis DSM 32315, Bacillus subtilis DSM 32540, Bacillus licheniformis DSM 32314 and Bacillus amyloliquefaciens CECT 5940 on adult colonic microbiota, an intestinal screening model was used (i-screen, TNO, the Netherlands). Therefore the i-screen model was inoculated with standard human adult fecal microbiota material, which consisted of pooled fecal donations from 6 healthy adult volunteers (Caucasian, European lifestyle and nutrition). The fecal material was mixed and grown in a fed-batch fermenter for 40 hours to create a standardized microbiota as described previously. These standard adult gut microbiota sets were stored at -80° C. in 12% glycerol. The intestinal microbiota was cultured in vitro in modified standard ileal efflux medium (SIEM), the composition of which was described by and modified as follows: 0.047 g/l pectin, 0.047 g/l xylan, 0.047 g/l arabinogalactan, 0.047 g/l amylopectin, 0.392 g/l starch, 24.0 g/l casein, 24.0 Bacto pepton, 0.4 ox-bile and 0.2 g/l cysteine. All components were supplied by Trititium Microbiology (Veldhoven, The Netherlands). The pH of the medium was adjusted to 5.8. For the i-screen fermentations, the precultured standardized fecal inoculum was diluted 50 times in 1350 μl modified SIEM. All experiments have been carried out in triplicates. The strains Bacillus subtilis (DSM 32315), Bacillus subtilis DSM 32540, Bacillus licheniformis DSM 32314 and Bacillus amyloliquefaciens CECT 5940 were precultured separately in 50 ml LBKelly medium, for about 16 h. Incubation was done in shaking flasks at 37° C. under aerobic conditions. After incubation, bacterial density was determined by optical density measurement at 600 nm. A final stock solution of 1×10^10 cells/ml was prepared in 1 ml buffer solution (0.1 mM MES pH 6). […] DNA extraction for the sequencing of 16S rRNA coding genes was performed as described by […] et al. (2013) with some minor modifications. Approximately 100 μl of the culture materials were added to the wells of a 96 well plate containing per well 300 μl of lysis buffer (Mag Mini DNA Isolation Kit, LGC ltd, UK), 500 μl zirconium beads (0.1 mm; BioSpec products, Bartlesville, OK, USA) and 500 μl of phenol saturated with Tris-HCI (pH 8.0; Carl Roth GMBH, Germany). The 96 well plate was placed in a Mini-BeadBeater-96 (BioSpec products, Bartlesville, Okla, USA) for 2 min at 2100 oscillations/min. DNA was subsequently purified using the Agowa Mag Mini DNA Isolation Kit according to the manufacturer recommendations. Extracted DNA was eluted in a final volume of 60 μl buffer. The microbiota composition was analyzed by 16S rRNA gene amplicon sequencing of the V4 Hypervariable Region. This was Achieved Through a Series of Steps: The amount of bacterial DNA in the i-screen DNA samples was determined by quantitative polymerase chain reaction (qPCR) using primers specific for the bacterial 16S rRNA gene: Subsequently, PCR amplicons of the V4 hypervariable region of the 16S rRNA gene were generated for the individual samples by amplification of […] of DNA as described by (2013), using […]/[…] primers. Primers included Illumina adapters and a unique 8-nt sample index sequence key. A mock control was included for technical quality control. […] The Library was quantified using the Quant-iTTM PicoGreen® dsDNA Assay Kit (Thermo Fisher Scientific). Paired-end sequencing of amplicons was conducted on the Illumina MiSeq platform (Illumina, Eindhoven, The Netherlands). The sequence data was processed with Mothur v.1.36.1 [26] in line with the mothur MiSeq SOP [24]. Before merging the read pairs, low quality regions were trimmed using Btrim with a sliding window size of 5 nt and average quality score of 25. After merging, the sequences were filtered by length while no ambiguous bases were allowed. […] Chimeric sequences were identified per sample using […] [28] in de novo mode and removed. […]

[1] = microbiota + CECT 5940 (first group so headed, r13-r15)
[2] = microbiota + CECT 5940 (second group so headed, r16-r18)
[3] = in combination with B. amyloliquefaciens (CECT 5940)
[4] = in combination with B. licheniformis (DSM 32314)
[5] = in combination with B. subtilis (DSM 32315)

Row | Structure (SMILES) | other genera relative abundance [1] [%] | other genera relative abundance [2] [%] | other genera relative abundance (microbiota + DSM 32315) [%] | other genera relative abundance (microbiota, no probiotic cells) [%] | synergy on microbial community composition (higher increase of Clostridium XIVa, higher decrease of Clostridium XI than single additions) [3] | synergy on microbial community composition (higher increase of Clostridium XIVa, higher decrease of Clostridium XI than single additions) [4] | synergy on microbial community composition (higher increase of Clostridium XIVa, higher decrease of Clostridium XI than single additions) [5] | effect on the microbial community
1 | CC(=O)N[C@@H](C)C(=O)N[C@@H](CCC(N)=O)C(=O)O [Ac-Ala-Gln] (Ac-Ala-Gln-OH) | 78 | 76 | 67 | 72 | – | – | – | –
2 | C[C@H](N)C(=O)N[C@@H](CCC(N)=O)C(=O)O [Ala-Gln, Alanine-Glutamine] (H-Ala-Gln-OH) | 90 | 94 | 96 | 98 | synergistic effect | synergistic effect | synergistic effect | –
3 | NC(=O)CC[C@H](N)C(=O)O [Gln, glutamine, reference compound] | 79 | 70 | 74 | 72 | synergistic effect | – | – | no positive effect on the microbial community
4 | N[C@@H](CCC(=O)O)C(=O)O [Glu, glutamic acid, reference compound] | 73 | 80 | 72 | 72 | – | – | – | no positive effect on the microbial community
5 | NCC(=O)O.N[C@@H](CCC(=O)O)C(=O)O [Gly-Glu, Glycine-Glutamic acid] | 91 | 90 | 92 | 95 | synergistic effect | synergistic effect | synergistic effect | –

Source: patent US12329788B2, “Synbiotic compositions” (Evonik Operations GmbH, priority 2018, dated 2025)
